ChEMBL document CHEMBL1649066, “An imidazopiperidine series of CCR5 antagonists for the treatment of HIV: the discovery of N-{(1S)-1-(3-fluorophenyl)-3-[(3-endo)-3-(5-isobutyryl-2-methyl-4,5,6,7-tetrahydro-1H-imidazo[4,5-c]pyridin-1-yl)-8-azabicyclo[3.2.1]oct-8-yl]propyl}acetamide (PF-232798)” (J Med Chem, 2011)
Active and inactive are the calls of the source. The rule behind the calls is not given here.

Columns and labels:
[1] = Intrinsic clearance in human liver microsomes assessed per mg of protein; format: ADME, Microsome
[2] = Apparent permeability from basolateral to apical side of human Caco2 cells; conditions: Caco-2
[3] = Octanol-buffer partition coefficient, log D of the compound
[4] = Apparent permeability from apical to basolateral side of human Caco2 cells; conditions: Caco-2
hERG (KCNH2) = hERG (KCNH2) (Homo sapiens, UniProt Q12809); experiment: in vitro; conditions: HEK293 cells that express human ERG, probe [3H]-dofetilide
Description: Displacement of [3H]-dofetilide from human ERG expressed in HEK293 cells at 300 nM

[5] = biological target: Voltage-gated inwardly rectifying potassium channel KCNH2 (Homo sapiens, UniProt Q12809)
Description: Displacement of [3H]-dofetilide from human ERG expressed in HEK293 cells

[6] = test system: Human immunodeficiency virus 1; experiment: Antiviral activity against maraviroc-resistant HIV1 isolate CC185 at IC90 concentration; format: functional, organism-based
[7] = test system: Human immunodeficiency virus 1; experiment: Antiviral activity against maraviroc-resistant HIV1 isolate CC185 at 10 times IC90 concentration; format: functional, organism-based
[8] = test system: Human immunodeficiency virus 1; experiment: Antiviral activity against maraviroc-resistant HIV1 isolate CC185 at 100 times IC90 concentration; format: functional, organism-based
[9] = test system: Human immunodeficiency virus; experiment: Antiviral activity against HIV Ba-L infected in PBMC; format: functional; conditions: Human immunodeficiency virus 1, Ba-L
[10] = Volume of distribution in dog at 0.5 mg/kg, iv and 0.5 mg/kg, po; format: ADME, organism-based, Canis lupus familiaris; conditions: in vivo
[11] = Clearance in rat at 1 mg/kg, iv and 2 mg/kg, po; format: ADME, organism-based; conditions: in vivo
[12] = Oral bioavailability in dog at 0.5 mg/kg; format: ADME, organism-based, Canis lupus familiaris; conditions: in vivo
[13] = Intrinsic clearance in dog liver microsomes assessed per mg of protein; format: ADME, Canis lupus familiaris, Microsome
[14] = Tmax in dog at 0.5 mg/kg, po; format: ADME, organism-based, Canis lupus familiaris; design: dose 0.5 mg/kg, route oral; conditions: in vivo
[15] = Plasma protein binding in rat at 1 mg/kg, iv and 2 mg/kg, po; format: ADME, organism-based; conditions: read-out: PPB (converted)
[16] = Intrinsic clearance in rat liver microsomes assessed per mg of protein; format: ADME, Microsome
Canis familiaris [17] = experiment: Unbound clearance in dog at 0.5 mg/kg, iv and 0.5 mg/kg, po; format: ADME, organism-based, Canis lupus familiaris; conditions: in vivo
[18] = Half life in rat at 1 mg/kg, iv and 2 mg/kg, po; format: ADME, organism-based; conditions: in vivo
Rattus norvegicus [19] = experiment: Unbound clearance in rat at 1 mg/kg, iv and 2 mg/kg, po; format: ADME, organism-based; conditions: in vivo
[20] = Clearance in dog at 0.5 mg/kg, iv and 0.5 mg/kg, po; format: ADME, organism-based, Canis lupus familiaris; conditions: in vivo
[21] = Half life in dog at 0.5 mg/kg, iv and 0.5 mg/kg, po; format: ADME, organism-based, Canis lupus familiaris; conditions: in vivo
[22] = Plasma protein binding in dog at 0.5 mg/kg, iv and 0.5 mg/kg, po; format: ADME, organism-based, Canis lupus familiaris; conditions: read-out: PPB (converted)
[23] = Oral bioavailability in rat at 2 mg/kg; format: ADME, organism-based; conditions: in vivo
Rattus norvegicus [24] = experiment: fCmax in rat at 2 mg/kg, po; format: ADME, organism-based; design: dose 2 mg/kg, route oral; conditions: in vivo
[25] = Tmax in rat at 2 mg/kg, po; format: ADME, organism-based; design: dose 2 mg/kg, route oral; conditions: in vivo
[26] = Half life in rat at 2 mg/kg, iv and 2 mg/kg, po; format: ADME, organism-based; conditions: in vivo
Rattus norvegicus [27] = experiment: Unbound clearance in rat at 2 mg/kg, iv and 2 mg/kg, po; format: ADME, organism-based; conditions: in vivo
Canis familiaris [28] = experiment: fCmax in dog at 0.5 mg/kg, po; format: ADME, organism-based, Canis lupus familiaris; design: dose 0.5 mg/kg, route oral; conditions: in vivo
[29] = Clearance in rat at 2 mg/kg, iv and 2 mg/kg, po; format: ADME, organism-based; conditions: in vivo
[30] = Plasma protein binding in rat at 2 mg/kg, iv and 2 mg/kg, po; format: ADME, organism-based; conditions: read-out: PPB (converted)

Chain of hERG (KCNH2) (Q12809 whole entry): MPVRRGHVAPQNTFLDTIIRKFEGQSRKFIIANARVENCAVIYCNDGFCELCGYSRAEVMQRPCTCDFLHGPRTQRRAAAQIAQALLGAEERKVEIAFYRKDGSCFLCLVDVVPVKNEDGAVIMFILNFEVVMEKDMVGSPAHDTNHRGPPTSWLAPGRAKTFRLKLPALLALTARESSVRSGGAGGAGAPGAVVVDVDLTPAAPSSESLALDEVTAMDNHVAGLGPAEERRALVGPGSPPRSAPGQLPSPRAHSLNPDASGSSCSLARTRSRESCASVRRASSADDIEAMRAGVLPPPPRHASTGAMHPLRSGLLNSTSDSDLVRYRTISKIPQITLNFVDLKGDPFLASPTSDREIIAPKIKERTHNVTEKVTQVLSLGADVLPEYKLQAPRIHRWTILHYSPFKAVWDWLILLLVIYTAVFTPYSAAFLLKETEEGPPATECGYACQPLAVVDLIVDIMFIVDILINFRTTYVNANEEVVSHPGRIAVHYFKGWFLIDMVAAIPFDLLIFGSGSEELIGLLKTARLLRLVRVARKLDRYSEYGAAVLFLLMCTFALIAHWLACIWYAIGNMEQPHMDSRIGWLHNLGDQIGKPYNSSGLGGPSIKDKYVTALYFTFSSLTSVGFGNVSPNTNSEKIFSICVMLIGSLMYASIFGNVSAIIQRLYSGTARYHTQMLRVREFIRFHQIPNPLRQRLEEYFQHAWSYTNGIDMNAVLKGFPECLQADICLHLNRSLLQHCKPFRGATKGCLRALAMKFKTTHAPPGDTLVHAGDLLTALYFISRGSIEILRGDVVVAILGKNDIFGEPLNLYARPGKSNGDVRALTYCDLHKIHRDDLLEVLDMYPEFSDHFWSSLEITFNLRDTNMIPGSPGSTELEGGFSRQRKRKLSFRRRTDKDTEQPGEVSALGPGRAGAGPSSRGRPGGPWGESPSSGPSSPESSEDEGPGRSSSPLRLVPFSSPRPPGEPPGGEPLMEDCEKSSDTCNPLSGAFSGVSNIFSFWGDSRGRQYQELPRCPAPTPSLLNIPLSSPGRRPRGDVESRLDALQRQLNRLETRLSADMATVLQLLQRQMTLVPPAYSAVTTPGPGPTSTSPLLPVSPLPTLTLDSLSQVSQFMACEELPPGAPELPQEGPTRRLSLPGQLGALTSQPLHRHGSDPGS
Chain of Voltage-gated inwardly rectifying potassium channel KCNH2 (Q12809 whole entry): as above

Structure (SMILES)	microsomal CLint [1] [µL/min/mg]	Papp B→A [2] [×10⁻⁶ cm/s]	logD [3]	Papp A→B [4] [×10⁻⁶ cm/s]	inhibition at 0.3 µM (hERG (KCNH2)) [%]	Activity [6]	Activity [7]	Activity [8]	further results
CCCC(=O)N1CCc2c(nc(C)n2[C@H]2C[C@H]3CC[C@@H](C2)N3CC[C@H](NC(C)=O)c2cccc(F)c2)C1	25	26	2.2	1					
COC(=O)N[C@@H](CCN1[C@@H]2CC[C@H]1C[C@@H](n1c(C)nc3c1CN(C(=O)OC)CC3)C2)c1cccc(F)c1	92	17	2.6	17	69				
CC(=O)N[C@@H](CCN1[C@@H]2CC[C@H]1C[C@@H](n1c(C)nc3ccccc31)C2)c1ccccc1		35		13					IC50 [5]: 1500 nM
CC(=O)N[C@@H](CCN1[C@@H]2CC[C@H]1C[C@@H](n1c(C)nc3c1CN(C)CC3)C2)c1ccccc1	< 7	9	0.4	< 1	0				
Cc1nc2ccccc2n1[C@H]1C[C@H]2CC[C@@H](C1)N2CC[C@H](NC(=O)C1CCOCC1)c1ccccc1						Active	Active	Active	
Cc1nnc(C2CC2)n1[C@H]1C[C@H]2CC[C@@H](C1)N2CC[C@H](NC(=O)C1CCC(F)(F)CC1)c1ccccc1						inactive	inactive	inactive	
CC(=O)N[C@@H](CCN1[C@@H]2CC[C@H]1C[C@@H](n1c(C)nc3c1CCN(c1cnccn1)C3)C2)c1cccc(F)c1	183		3						IC50 [5]: 1000 nM
CC(=O)N[C@@H](CCN1[C@@H]2CC[C@H]1C[C@@H](n1c(C)nc3c1CCN(C(=O)C(C)C)C3)C2)c1cccc(F)c1 [PF-232798]	13	8	2	2		Active	Active	Active	IC90 [9]: 2 nM; Vd [10]: 10.5 L/kg; clearance [11]: 201 mL/min/kg; bioavailability [12]: 31%; microsomal CLint [13]: < 9 µL/min/mg; Tmax [14]: 1 h; fraction unbound [15]: 0.38; microsomal CLint [16]: < 6 µL/min/mg; CL (Canis familiaris [17]): 63 mL/min/kg; half-life [18]: 1.4 h; CL (Rattus norvegicus [19]): 526 mL/min/kg; clearance [20]: 36 mL/min/kg; half-life [21]: 3.4 h; fraction unbound [22]: 0.53; bioavailability [23]: < 5%; IC50 [5]: 12000 nM
COC[C@@H](c1ccc(C(F)(F)F)cc1)N1CCN(C2(C)CCN(C(=O)c3c(C)ncnc3C)CC2)C[C@@H]1C						Active	Active	Active	
Cc1nc(C(C)C)n([C@H]2C[C@H]3CC[C@@H](C2)N3CC[C@H](NC(=O)C2CCC(F)(F)CC2)c2ccccc2)n1		26		11					IC50 [5]: 4230 nM
CCC(=O)N1CCc2nc(C)n([C@H]3C[C@H]4CC[C@@H](C3)N4CC[C@H](NC(C)=O)c3ccccc3)c2C1	< 7	17	1.2	< 1	13				
CC(=O)N[C@@H](CCN1[C@@H]2CC[C@H]1C[C@@H](n1c(C)nc3c1CN(C(C)=O)CC3)C2)c1ccccc1	< 7	5	0.6	< 1	0				
COC(=O)N[C@@H](CCN1[C@@H]2CC[C@H]1C[C@@H](n1c(C)nc3c1CN(C(C)=O)CC3)C2)c1ccccc1	42	27	1.4	4	57				
CC(=O)N[C@@H](CCN1[C@@H]2CC[C@H]1C[C@@H](n1c(C)nc3c1CN(C(=O)OC(C)C)CC3)C2)c1ccccc1	44	28	2.7	5	75				
COC(=O)N[C@@H](CCN1[C@@H]2CC[C@H]1C[C@@H](n1c(C)nc3c1CN(C(C)=O)CC3)C2)c1cccc(F)c1	24	23	1.7	6	28				
COC(=O)N1CCc2c(nc(C)n2[C@H]2C[C@H]3CC[C@@H](C2)N3CC[C@H](NC(C)=O)c2cccc(F)c2)C1	< 8	11	1.9	3		Active	Active	Active	IC90 [9]: 0.8 nM; Vd [10]: 9.9 L/kg; bioavailability [12]: 50%; microsomal CLint [13]: < 9 µL/min/mg; Tmax [14]: 0.5 h; Cmax_unbound (Rattus norvegicus [24]): 208 nM; microsomal CLint [16]: < 6 µL/min/mg; Tmax [25]: 2 h; CL (Canis familiaris [17]): 150 mL/min/kg; half-life [26]: 2.3 h; CL (Rattus norvegicus [27]): 253 mL/min/kg; Cmax_unbound (Canis familiaris [28]): 9 nM; clearance [20]: 36 mL/min/kg; half-life [21]: 3.3 h; clearance [29]: 91 mL/min/kg; fraction unbound [30]: 0.32; fraction unbound [22]: 0.27; bioavailability [23]: 20%; IC50 [5]: 2000 nM
CC(=O)N[C@@H](CCN1[C@@H]2CC[C@H]1C[C@@H](n1c(C)nc3c1CN(S(C)(=O)=O)CC3)C2)c1ccccc1	24		0.9		10				
CC(=O)N1CC(C(=O)N[C@@H](CCN2[C@@H]3CC[C@H]2C[C@@H](n2c(C)nc4ccccc42)C3)c2ccccc2)C1						Active	Active	Active	
CC(=O)N[C@@H](CCN1[C@@H]2CC[C@H]1C[C@@H](n1c(C)nc3c1CN(C(=O)C(C)C)CC3)C2)c1ccccc1	42	20	1.6	< 1	0				
CC(=O)N[C@@H](CCN1[C@@H]2CC[C@H]1C[C@@H](n1c(C)nc3c1CCN(C(=O)C(C)(C)C)C3)C2)c1cccc(F)c1	35	24	2.8	1					
Cc1nnc(C(C)C)n1[C@H]1C[C@H]2CC[C@@H](C1)N2CC[C@H](NC(=O)C1CCC(F)(F)CC1)c1ccccc1 [MARAVIROC]									IC90 [9]: 3.2 nM
CCC(=O)N1CCc2c(nc(C)n2[C@H]2C[C@H]3CC[C@@H](C2)N3CC[C@H](NC(C)=O)c2cccc(F)c2)C1	11	13	1.7	2		Active	Active	Active	IC50 [5]: 5000 nM
CC(=O)N[C@@H](CCN1[C@@H]2CC[C@H]1C[C@@H](n1c(C)nc3c1CN(C(C)C)CC3)C2)c1ccccc1	46		0.8						
COC(=O)N1CCc2nc(C)n([C@H]3C[C@H]4CC[C@@H](C3)N4CC[C@H](NC(C)=O)c3cccc(F)c3)c2C1	19					Active	Active	Active	IC90 [9]: 1.6 nM; Vd [10]: 11.8 L/kg; clearance [11]: 46 mL/min/kg; bioavailability [12]: 42%; microsomal CLint [13]: 32 µL/min/mg; Tmax [14]: 0.25 h; fraction unbound [15]: 0.29; microsomal CLint [16]: 15 µL/min/mg; Tmax [25]: 2 h; CL (Canis familiaris [17]): 93 mL/min/kg; half-life [18]: 1.7 h; CL (Rattus norvegicus [19]): 518 mL/min/kg; clearance [20]: 36 mL/min/kg; half-life [21]: 3.8 h; fraction unbound [22]: 0.38; bioavailability [23]: 8%
CC(=O)N[C@@H](CCN1[C@@H]2CC[C@H]1C[C@@H](n1c(C)nc3c1CCN(c1ccncn1)C3)C2)c1cccc(F)c1	35	15	2.6	4					IC50 [5]: 10 nM
COC(=O)N1CCc2nc(C)n([C@H]3C[C@H]4CC[C@@H](C3)N4CC[C@H](NC(C)=O)c3ccccc3)c2C1	18	16	1.5	3	20				
CC(=O)N[C@@H](CCN1[C@@H]2CC[C@H]1C[C@@H](n1c(C)nc3c1CCN(C(C)=O)C3)C2)c1cccc(F)c1	< 8	6	1.4	< 1					
CCCCN1C(=O)[C@@H]([C@H](O)C2CCCCC2)NC(=O)C12CCN(Cc1ccc(Oc3ccc(C(=O)O)cc3)cc1)CC2						Active	Active	Active	
Cc1nnc(C(C)C)n1[C@H]1C[C@H]2CC[C@@H](C1)N2CC[C@H](NC(=O)C1CCC(F)(F)CC1)c1cccc(F)c1						inactive	inactive	inactive	
